In brackets after ≈: the same amount, converted by molar mass. Entries after “also recorded” stand apart in the source; their conditions may differ. Where two headings read alike, the source gives them in different places.
Legend:
[1] = system: Pr. vulgaris XK Denken; assay: Antibacterial activity in vitro, M.I.C., agar dilution streak method; assay type: cell-based, Proteus vulgaris; settings: Proteus vulgaris; Gram -; read-out: M.I.C.
[2] = system: Mycobacterium phlei IFO 3142; assay: as above; assay type: cell-based; settings: Mycolicibacterium phlei, IFO3142; Gram +; read-out: M.I.C.
[3] = system: Staphylococcus aureus 209P; assay: as above; assay type: cell-based; settings: Staphylococcus aureus, 209P; Gram +; read-out: M.I.C.
[4] = system: chromosome of myelocytes; set-up: species or system rats; settings: rat, in vivo, po, 1000 mg/kg
[5] = system: Pseudomonas aeruginosa V-1; assay: Antibacterial activity in vitro, M.I.C., agar dilution streak method; assay type: cell-based; settings: Pseudomonas aeruginosa, V1; Gram -; read-out: M.I.C.
[6] = system: Sta. aureus ATCC 14775; assay: as above; assay type: cell-based, Staphylococcus aureus; settings: Staphylococcus aureus, ATCC14775; Gram +; read-out: M.I.C.
[7] = system: Escherichia coli NIHJ; assay: as above; assay type: cell-based; settings: Escherichia coli; Gram -; read-out: M.I.C.
[8] = system: Pseudomonas aeruginosa IID 1210; assay: Preventive effect against systemic infection with Pseudomonas aeruginosa in mice; assay type: in vivo, Pseudomonas aeruginosa; mice (ddY, male)
Method: Systemic infection was produced by inoculating male mice (strain: ddY, 6 weeks old, body weight: 28-33g) in intraperitoneally with Pseudomonas aeruginosa IID 1210 suspended in 0.5 ml of Brain heart infusion broth (Eiken) containing 5% mucin. […] Each of these test materials was administered to the mice twice, immediately after and then 6 hours after the inoculation, and the therapeutic effect of each compounds was judged from the survival rate.
(1) Miller L. C. and M. L. Tainter: Estimation of the ED50 and its error by means of logarithmic-probit graph paper Proc. Soc. Exp. Biol. Med. 57 261-264 (1944)
(2) Litchfield J. T. and F. Wilcoxon: A simplified method of evaluating dose - effect J. Pharmacol. 92 99-113 (1948)

[9] = system: Klebsiella pneumoniae IFO 3512; assay: Antibacterial activity in vitro, M.I.C., agar dilution streak method; assay type: cell-based; settings: Klebsiella pneumoniae, IFO3512; Gram -; read-out: M.I.C.
[10] = system: Salmonella enteritidis IID 604; assay: as above; assay type: cell-based; settings: Salmonella enterica; Gram -; read-out: M.I.C.
[11] = Concentrations in urine of rats after a single oral administration; assay type: in vivo; settings: rat; for concentration at 3 h: 0-3 hours; for concentration at 3 h / concentration at 6 h / concentration at 24 h / concentration at 27 h: mean ±S.E., read-out: Urinary level; for concentration at 6 h: 3-6 hours; for concentration at 24 h: 6-24 hours; for concentration at 27 h: 24-27 hours
[12] = rat, in vivo
[13] = system: Neisseria perflava IID 856; assay: Antibacterial activity in vitro, M.I.C., agar dilution streak method; assay type: cell-based; settings: Neisseria perflava, IID856; Gram -; read-out: M.I.C.
[14] = in vivo; settings: rat, po, 50 mg/kg
Method: (§1) Nutrient agar was heated and melted. Escherichia coli NIHJ JC-2 was added to melted agar, and well mixed, and 5 ml of the mixture was placed in Petri dish. Penicylinders were placed on the solidified agar, and the cylinder was filled with serum sample. The plate was placed in the incubator of 37° C. for 20 hours. The diameter of the inhibition zone was measured.
(§2) The tissue homogenates were prepared with 1:4 homogenates in M/15 phosphate buffer (pH 7.5).

[15] = system: Ps. aeruginosa IFO 12689; assay: Antibacterial activity in vitro, M.I.C., agar dilution streak method; assay type: cell-based, Pseudomonas aeruginosa; settings: Pseudomonas aeruginosa, IFO12689; Gram -; read-out: M.I.C.
[16] = Concentrations in tissues after a single oral administration of 50 mg/kg in rats; settings: rat; for Tissue level, liver (free concentration): 50 mg/kg oral, mean ± S.E.
Method: as §1, §2

[17] = system: Ps. aeruginosa IID 1210; assay: Antibacterial activity in vitro, M.I.C., agar dilution streak method; assay type: cell-based, Pseudomonas aeruginosa; settings: Pseudomonas aeruginosa, IID1210; Gram -; read-out: M.I.C.

SMILES: CCn1cc(C(=O)O)c(=O)c2cc(F)c(N3CCNCC3)cc21 [Compound (II), 1-ethyl-6-fluoro-1,4-dihydro-7-(1-piperazinyl)-4-oxoquinoline-3-carboxylicacid]
- MIC [1]: 0.2 µg/mL (≈ 0.626 µM)
- MIC [2]: 0.39 µg/mL (≈ 1.22 µM)
- MIC [3]: 0.78 µg/mL (≈ 2.44 µM)
- effects on chromosome of myelocytes (in words) [4]: no effects of the test compound on chromosome of myelocytes were observed
- MIC [5]: 0.39 µg/mL (≈ 1.22 µM)
- MIC [6]: 1.56 µg/mL (≈ 4.89 µM)
- MIC [7]: 0.1 µg/mL (≈ 0.313 µM)
- ED90 ([8]; Pseudomonas aeruginosa, IID1210): 185 mg/kg
- ED50 ([8]; Pseudomonas aeruginosa, IID1210, po, 6 h, read-out: ED50 (95% confidence limit)): 98 mg/kg
- protection against systemic infection (in words) ([8]; mice, listed as EXAMPLE 2): effectively protected the mice from Pseudomonas aeruginosa infection; also recorded: more potent than pipemidic acid and carbenicillin
- MIC [9]: 0.05 µg/mL (≈ 0.157 µM)
- MIC [10]: 0.2 µg/mL (≈ 0.626 µM)
- concentration at 3 h ([11]; 1.56 mg/kg oral): 1360 ± 140 ng/mL
- concentration at 6 h ([11]; 1.56 mg/kg oral): 930 ± 140 ng/mL
- concentration at 24 h ([11]; 1.56 mg/kg oral): 170 ± 50 ng/mL
- concentration at 27 h ([11]; 1.56 mg/kg oral): 40 ± 10 ng/mL
- concentration at 3 h ([11]; 3.13 mg/kg oral): 3390 ± 550 ng/mL
- concentration at 6 h ([11]; 3.13 mg/kg oral): 3780 ± 440 ng/mL
- concentration at 24 h ([11]; 3.13 mg/kg oral): 580 ± 90 ng/mL
- concentration at 27 h ([11]; 3.13 mg/kg oral): 30 ng/mL
- concentration at 3 h ([11]; 6.25 mg/kg oral): 9690 ± 2300 ng/mL
- concentration at 6 h ([11]; 6.25 mg/kg oral): 8080 ± 1500 ng/mL
- concentration at 24 h ([11]; 6.25 mg/kg oral): 1360 ± 200 ng/mL
- concentration at 27 h ([11]; 6.25 mg/kg oral): 40 ng/mL
- concentration at 3 h ([11]; 12.5 mg/kg oral): 21900 ± 3600 ng/mL
- concentration at 6 h ([11]; 12.5 mg/kg oral): 16800 ± 1600 ng/mL
- concentration at 24 h ([11]; 12.5 mg/kg oral): 4000 ± 500 ng/mL
- concentration at 27 h ([11]; 12.5 mg/kg oral): 60 ± 20 ng/mL
- concentration at 3 h ([11]; 25.0 mg/kg oral): 56800 ± 11100 ng/mL
- concentration at 6 h ([11]; 25.0 mg/kg oral): 46400 ± 3800 ng/mL
- concentration at 24 h ([11]; 25.0 mg/kg oral): 13500 ± 3000 ng/mL
- concentration at 27 h ([11]; 25.0 mg/kg oral): 1200 ± 500 ng/mL
- concentration at 3 h ([11]; 50.0 mg/kg oral): 89300 ± 19500 ng/mL
- concentration at 6 h ([11]; 50.0 mg/kg oral): 99200 ± 15900 ng/mL
- concentration at 24 h ([11]; 50.0 mg/kg oral): 32200 ± 100 ng/mL
- concentration at 27 h ([11]; 50.0 mg/kg oral): 3100 ± 900 ng/mL
- Tmax ([11]; oral, read-out: time of concentrations peak in urine): 0 to 6 h
- dose dependence of serum concentration (in words) [12]: depended on the dose from 25 mg/kg to 400 mg/kg
- MIC [13]: 0.05 µg/mL (≈ 0.157 µM)
- concentration at 0.5 h [14]: 11100 ± 2100 ng/g
- concentration at 1 h [14]: 10300 ± 2000 ng/g
- concentration at 2 h [14]: 6500 ± 900 ng/g
- concentration at 4 h [14]: 3500 ± 900 ng/g
- concentration at 6 h [14]: 1400 ± 100 ng/g
- MIC [15]: 1.56 µg/mL (≈ 4.89 µM)
- Tissue level, liver (free concentration) ([16]; 0.5 hrs.): 4.1 ± 0.9 µg/g
- Tissue level, liver (free concentration) ([16]; 1 hr.): 3.7 ± 0.6 µg/g
- Tissue level, liver (free concentration) ([16]; 2 hrs.): 2.5 ± 0.5 µg/g
- Tissue level, liver (free concentration) ([16]; 4 hrs.): 1.2 ± 0.2 µg/g
- Tissue level, liver (free concentration) ([16]; 6 hrs.): 0.7 ± 0.1 µg/g
- concentration at 0.5 h ([16]; liver, po, 50 mg/kg): 9000 ± 1900 ng/g
- concentration at 1 h ([16]; liver, po, 50 mg/kg): 7900 ± 1200 ng/g
- concentration at 2 h ([16]; liver, po, 50 mg/kg): 5400 ± 1000 ng/g
- concentration at 4 h ([16]; liver, po, 50 mg/kg): 2600 ± 400 ng/g
- concentration at 6 h ([16]; liver, po, 50 mg/kg): 1500 ± 200 ng/g
- MIC [17]: 1.56 µg/mL (≈ 4.89 µM)
